Assays:
[1] = test system: N. fowleri ATCC® 30,808™ cysts; test: microbe, parasite or virus in culture; assay type: cell-based; conditions: Naegleria fowleri, ATCC30, read-out: N. fowleri ATCC 30,808 IC50, cyst stage
[2] = test system: N. fowleri ATCC® 30,808™ trophozoites; test: In vitro activity against trophozoites, alamarBlue, 48 h; assay type: cell-based, Naegleria fowleri; conditions: for S.I. ATCC 30,808 (selectivity index CC50/IC50): CC50 J774A.1 / IC50 ATCC 30,808 trophozoites; for IC50 / IC90: Naegleria fowleri; for IC50: ATCC30, 48 h, read-out: N. fowleri ATCC 30,808 IC50, trophozoite stage; for IC90: ATCC30, read-out: N. fowleri ATCC 30,808 IC90
[3] = test system: N. fowleri ATCC® 30,215™ trophozoites; test: as above; assay type: cell-based; conditions: Naegleria fowleri, ATCC30, 48 h, read-out: N. fowleri ATCC 30,215 IC50
[4] = test system: N. fowleri (ATCC® 30,808™) trophozoites; test: Chromatin condensation, Hoechst 33,342/Propidium Iodide double staining; assay type: cell-based, Naegleria fowleri; conditions: IC90, 24 h
[5] = test system: N. fowleri (ATCC® 30,808™) trophozoites; test: Mitochondrial membrane potential depolarization, JC-1; assay type: cell-based, Naegleria fowleri; conditions: IC90, 24 h
[6] = test system: N. fowleri (ATCC® 30,808™) trophozoites; assay type: cell-based, Naegleria fowleri; conditions: trophozoites treated with IC90 for 24 h
[7] = test system: N. fowleri (ATCC® 30,808™) trophozoites; test: Plasma membrane permeability, SYTOX Green; assay type: cell-based, Naegleria fowleri; conditions: IC90, 24 h

SMILES	IC50 [1] [µM]	S.I. ATCC 30,808 (selectivity index CC50/IC50) [2]	IC50 [2] [µM]	IC90 [2] [µM]	IC50 [3] [µM]	Chromatin condensation (Hoechst 33,342 blue fluorescence) [4]	Mitochondrial membrane potential (JC-1 fluorescence) [5]	Inhibition of ATP synthesis in comparison to the negative control [6] [%]	Plasma membrane permeability (SYTOX Green fluorescence) [7]
CCCCCCCCCCCCCCCCOP(=O)([O-])OCC[N+](C)(C)C [MILTEFOSINE, miltefosine]	21.5 ± 2.62	3.3							
CC(C)N1CCN(c2ccc(OCC3COC(Cn4cncn4)(c4ccc(Cl)cc4Cl)O3)cc2)CC1 (stereo not drawn) [TERCONAZOLE, terconazole]	2.46 ± 0.28	22.99	3.68 ± 0.61	30.9 ± 2.38	0.81 ± 0.49				
C[C@@H]1[C@H](O)[C@@H](C)/C=C/C=C/C=C/C=C/C=C/C=C/C=C/[C@H](O[C@@H]2O[C@H](C)[C@@H](O)[C@H](N)[C@@H]2O)C[C@@H]2O[C@](O)(C[C@@H](O)C[C@@H](O)[C@H](O)CC[C@@H](O)C[C@@H](O)CC(=O)O[C@H]1C)C[C@H](O)[C@H]2C(=O)O [AMPHOTERICIN B, amphotericin B]	0.53 ± 0.03	≥1650	0.12 ± 0.03	0.35 ± 0.02	0.16 ± 0.02	emission of blue fluorescence was observed	green fluorescence emission was also shown	> 98	emitted green fluorescence
CCCN1CCC=C(c2cc(-c3ccc(C)cc3)no2)C1 [PD-144418]	10.4 ± 2.3	10.35	4.71 ± 0.95	17.4 ± 3.28	6.48 ± 2.83				

Reference: publication PMC11091526 (International Journal for Parasitology: Drugs and Drug …, 2024)
